US20110288154A1, “RNA Interference Mediated Inhibition of Epithelial Sodium Channel (ENaC) Gene Expression Using Short Interfering Nucleic Acid (siNA)” (MERCK & CO., INC., priority 2008, published 2011)
[invAb] = inverted abasic unit; m = 2'-O-methyl; r = 2'-OH (RNA); f = 2'-fluoro

Tests used:
mSCNN1A mRNA = assay: Screening of ENaCα siNAs in mouse NIH 3T3 cells (quantitative RT-PCR); format: cell-based; design: Percent Reduction of the mSCNN1A mRNA relative to a non-targeting control siNA / Mouse % KD (efficacy of ENaCα mRNA knockdown): concentration or dose not given beside the values; details: for Mean (mSCNN1A expression normalized to the level of m36B4) / Percent Reduction of the mSCNN1A mRNA relative to a non-targeting control siNA / Avg ENaCα Expression (mSCNN1A) / Avg 36B4 Expression: mouse NIH 3T3 cells, n = 3; for Mean (mSCNN1A expression normalized to the level of m36B4) / Percent Reduction of the mSCNN1A mRNA relative to a non-targeting control siNA / Avg 36B4 Expression: 24 hours post-transfection; for Avg ENaCα Expression (mSCNN1A): harvested 24 hours post-transfection; for Avg 36B4 Expression: housekeeping gene used for normalisation
Protocol: siNA constructs (Table 1b) may be tested for efficacy in reducing ENaC RNA expression in, for example, A549 human lung carcinoma cells. A549 (human; ATCC cat# CCL-185) cells were cultured at 37° C. in the presence of 5% CO2 and grown in Ham's F12K medium with 2 mM L-glutamine adjusted to contain 1.5 g/L sodium bicarbonate and supplemented with fetal bovine serum at a final concentration of 10% and 100 U/mL penicillin. The A549 cells were plated approximately 24 hours before transfection in 96-well plates at 7,500 cells/well, 100 μl/well. After 24 hours complexes containing siNA and Lipofectamine 2000 (Invitrogen) were created as follows: a solution of Lipofectamine 2000 in OPTI-MEM was prepared containing Lipofectamine 2000 at a final concentration of 14 μg/ml. In parallel, solutions of the siNAs were prepared in OPTI-MEM at a final concentration of 150 nM. After both solutions were incubated at 20° C. for 20 minutes an equal volume of the siNA solutions and the Lipofectamine 2000 solution were added together for each of the siNAs. The resultant solution has the siNAs at a final concentration of 75 nM and Lipofectamine 2000 at a final concentration of 7 μg/ml. This solution was incubated at 20° C. for 20 minutes. After incubation 50 μl of the solution were added to each of the wells (in triplicate). The final concentration of siNA in each well was 25 nM and the final concentration of Lipofectamine 2000 in each well was 2.33 μg/ml. The plates were incubated for 48 hours with no change of media before harvesting. Dose response curves were determined in a similar manner with each concentration being done in triplicate and maintaining a constant amount of Lipofectamine 2000 in each transfection.
(§1) A series of probes and primers were used to detect the various mRNA transcripts of the genes of ENaCa and GAPDH in mouse, rat, and human cell lines. The assays were performed on an ABI 7500 instrument, according to the manufacturer's instructions. Within each experiment, the baseline was set in the exponential phase of the amplification curve, and based on the intersection point of the baselines with the amplification curve, a Ct value was assigned by the instrument. This Ct value was then assigned a QTY value based on the Standard Curve. The standard curve in the various experiments herein used 1 ng to 300 ng of RNA extracted from the same cell line used for the experimental transfections.
(§2) All IC50 values were calculated from the data using GraphPad Prizm software, specifically a sigmoidal, variable slope curve for simple ligand binding. Also, unless otherwise indicated, all calculations of the efficacy and potency (e.g., % knockdown) of the siNAs were done relative to a non-targeting control siNA. If reported, P-values were computed using The Students t-test, including the Welch Correction for unequal variances.
(§3) In all of the calculations of the % knock-down of mRNA, the calculation was made relative to the normalized level of expression of the gene of interest in the samples treated with the non-targeting control (NTC) unless otherwise indicated. The gene of interest expression level was divided by the level of expression of GAPDH or 36B4 (depending on the species) in each sample. The three replicates for each condition in each experiment were averaged and the standard deviation of those samples was calculated. The following formula was then used to calculate the % of knock-down of the gene of interest:
(§4) The ENaCα siNAs were designed and synthesized as described previously. The siNAs were screened in three cell lines. Human A549 cells, mouse NIH 3T3 and Rat H-4-II-E cells. The data from the screen of ENaCa siNAs in all three species is shown in Tables 3a, 3b, 4a, 4b, 5a, and 5b and a summary of the data for certain siNA molecules is presented in Table 6. Each screen was performed at 24 hrs. The decision to use this time point was based upon the degree of knockdown of the mRNA seen at that time point.

rSCNN1A (r ENaCα) mRNA = assay: Screening of ENaCα siNAs in Rat H-4-II-E cells (quantitative RT-PCR); format: cell-based; design: Percent Reduction of the r ENaCα mRNA relative to a non-targeting control siNA (NTCs) / Rat % KD (efficacy of ENaCα mRNA knockdown): concentration or dose not given beside the values; details: for Mean (rSCNN1A expression normalized to the level of rGAPDH) / Percent Reduction of the r ENaCα mRNA relative to a non-targeting control siNA (NTCs) / Avg ENaCα Expression (rSCNN1A) / Avg GAPDH Expression (rGAPDH): Rat H-4-II-E cells, n = 3; for Mean (rSCNN1A expression normalized to the level of rGAPDH) / Percent Reduction of the r ENaCα mRNA relative to a non-targeting control siNA (NTCs) / Avg GAPDH Expression (rGAPDH): 24 hours post-transfection; for Avg ENaCα Expression (rSCNN1A): harvested 24 hours post-transfection; for Avg GAPDH Expression (rGAPDH): housekeeping gene used for normalisation
Protocol: as §1, §2, §3, §4

| Substance | Mean (mSCNN1A expression normalized to the level of m36B4) (mSCNN1A mRNA) | Percent Reduction of the mSCNN1A mRNA relative to a non-targeting control siNA (mSCNN1A mRNA) | Avg ENaCα Expression (mSCNN1A) (mSCNN1A mRNA) | Avg 36B4 Expression (mSCNN1A mRNA) | Mean (rSCNN1A expression normalized to the level of rGAPDH) (rSCNN1A (r ENaCα) mRNA) | Percent Reduction of the r ENaCα mRNA relative to a non-targeting control siNA (NTCs) (rSCNN1A (r ENaCα) mRNA) | Avg ENaCα Expression (rSCNN1A) (rSCNN1A (r ENaCα) mRNA) | Avg GAPDH Expression (rGAPDH) (rSCNN1A (r ENaCα) mRNA) | IC50 (mSCNN1A mRNA; mouse cell line, dose response, read-out: Mouse IC50 (potency of ENaCα mRNA knockdown)) | Mouse % KD (efficacy of ENaCα mRNA knockdown) (mSCNN1A mRNA; mouse cell line, summary) | IC50 (rSCNN1A (r ENaCα) mRNA; rat cell line, dose response, read-out: Rat IC50 (potency of ENaCα mRNA knockdown)) | Rat % KD (efficacy of ENaCα mRNA knockdown) (rSCNN1A (r ENaCα) mRNA; rat cell line, summary) |
| --- | --- | --- | --- | --- | --- | --- | --- | --- | --- | --- | --- | --- |
| B uGGcuGuGccuAcAucuuc TTB / GAAGAuGuAGGcAcAGccAUU (sense UGGCUGUGCCUACAUCUUCTT; antisense GAAGAUGUAGGCACAGCCAUU; siRNA; sense: DNA at AGT, 2'-fluoro at CU, [invAb] at 5' end, 3' end, backbone not given here; antisense: sugars from the 5' end rrrmmfmfmmmfmfmmffmmm, backbone not given here) [Site 1386] | 0.09 | 31.9% | 2.35 | 25.00 | 0.48 | 48.3% | 17.21 | 36.31 | – | – | – | – |
| B uGuGGcuGuGccuAcAucu TTB / AGAuGuAGGcAcAGccAcAUU (sense UGUGGCUGUGCCUACAUCUTT; antisense AGAUGUAGGCACAGCCACAUU; siRNA; sense: DNA at AGT, 2'-fluoro at CU, [invAb] at 5' end, 3' end, backbone not given here; antisense: sugars from the 5' end rrrfmfmmmfmfmmffmfmmm, backbone not given here) [Site 1384] | 0.14 | −0.1% | 3.11 | 20.56 | 0.66 | 27.8% | 23.39 | 34.69 | – | – | – | – |
| B GGcAGccAGuGGAGccuGu TTB / ACAGGcuccAcuGGcuGccUU (sense GGCAGCCAGUGGAGCCUGUTT; antisense ACAGGCUCCACUGGCUGCCUU; siRNA; sense: DNA at AGT, 2'-fluoro at CU, [invAb] at 5' end, 3' end, backbone not given here; antisense: sugars from the 5' end rrrmmffffmffmmffmffmm, backbone not given here) [Site 1753] | 0.12 | 9.6% | 3.13 | 25.27 | 0.59 | 35.4% | 24.59 | 41.36 | – | – | – | – |
| B GuGGcuGuGccuAcAucuu TTB / AAGAuGuAGGcAcAGccAcUU (sense GUGGCUGUGCCUACAUCUUTT; antisense AAGAUGUAGGCACAGCCACUU; siRNA; sense: DNA at AGT, 2'-fluoro at CU, [invAb] at 5' end, 3' end, backbone not given here; antisense: sugars from the 5' end rrrmfmfmmmfmfmmffmfmm, backbone not given here) [Site 1385] | 0.13 | 4.4% | 2.95 | 22.75 | 0.58 | 36.7% | 19.09 | 30.04 | – | – | – | – |
| B AccGcAuGAAGAcGGccuu TTB / AAGGccGucuucAuGcGGuUU (chain 1 ACCGCAUGAAGACGGCCUUTT; chain 2 AAGGCCGUCUUCAUGCGGUUU; siRNA; chain 1: DNA at AGT, 2'-fluoro at CU, [invAb] at 5' end, 3' end, backbone not given here; chain 2: sugars from the 5' end rrrmffmfffffmfmfmmfmm, backbone not given here) [Site 338] | 0.26 | −9.5% | 3.24 | 12.29 | 0.79 | 38.7% | 14.22 | 18.42 | – | – | – | – |
| B AccuGGGcAGccAGuGGAG TTB / CUCcAcuGGcuGcccAGGuUU (sense ACCUGGGCAGCCAGUGGAGTT; antisense CUCCACUGGCUGCCCAGGUUU; siRNA; sense: DNA at AGT, 2'-fluoro at CU, [invAb] at 5' end, 3' end, backbone not given here; antisense: sugars from the 5' end rrrfmffmmffmfffmmmfmm, backbone not given here) [Site 1748] | 0.15 | −12.7% | 4.06 | 26.15 | 0.60 | 34.7% | 26.11 | 43.45 | – | – | – | – |
| B uGuGcAAccAGAAcAAAuc TTB / GAUuuGuucuGGuuGcAcAUU (chain 1 UGUGCAACCAGAACAAAUCTT; chain 2 GAUUUGUUCUGGUUGCACAUU; siRNA; B caps on sense ends, letter-case modifications not given here, further chemistry not given here) [Site 782] | 0.05 | 78.2% | 0.85 | 16.72 | 0.47 | 63.7% | 13.71 | 29.23 | 3.9 nM | 78% | 0.8 nM | 63% |
| B GGcuGuGccuAcAucuucu TTB / AGAAGAuGucGGcAcAGccUU (sense GGCUGUGCCUACAUCUUCUTT; antisense AGAAGAUGUCGGCACAGCCUU; siRNA; sense: DNA at AGT, 2'-fluoro at CU, [invAb] at 5' end, 3' end, backbone not given here; antisense: sugars from the 5' end rrrmmmfmffmmfmfmmffmm, backbone not given here) [Site 1387] | 0.06 | 59.1% | 1.37 | 24.37 | 0.71 | 23.3% | 24.12 | 34.37 | – | – | – | – |
